Among the data in PubChem BioAssay (NCI) are TGI values, retold here.

Some test systems named below: HCC-2998 colon; CCRF-CEM leukemia; DU-145 prostate; SF-268 CNS; SF-539 CNS; 786-0 renal; HCT-15 colon; UACC-257 melanoma.
Test in all cases: NCI anticancer screen, dose series, 48 h

The structures appear in SMILES notation.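 Dose response: 5 concentrations. Exposure: 48 h. Format: 96-well plates. Endpoint: linear interpolation; highest concentration if not reached. Definition used: TGI = concentration required for complete inhibition of growth.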 *1 amine or outer side, *2 acyl side, *3 side chain or, on linkers, in order; H or OH if unused. Where a SMILES comes first, the peptide text is derived from it. Bridges are numbered along the chain shown (N, C = ends). [ ]: non-standard residue; d: D form. The star is where a group is joined. ξ: configuration not given here. X34 = O=C(C(CCCCNO[*:3])N[*:1])[*:2]; Fmoc = O=C(OCC1c2ccccc2-c2ccccc21)*; ξW = NC(Cc1c[nH]c2ccccc12)C(=O)O; ξP = O=C(O)C1CCCN1 Bounds are passed on as bounds.

Turning to `C=C(C)C12CC(COC(=O)c3ccccc3)C34OC5(OC1C3C1OC1(CO)C(O)C1(O)C(OC(=O)c3ccccc3)C(C)C(C(C)CCCCCCC5O)C14)O2` (stereo not given), the TGI was > 64.8 µM in the experiment with HCC-2998 colon; > 100 µM with CCRF-CEM leukemia; > 100 µM with DU-145 prostate; > 100 µM in the experiment on SF-268 CNS; > 100 µM in the experiment with SF-539 CNS; > 100 µM with 786-0 renal. Besides, the TGI in the experiment with HCT-15 colon and with UACC-257 melanoma was > 100 µM each time.
On to `OC1C2[C@@H](O)CCCN2C[C@@H](O)[C@H]1O` (stereo not given in full), for which the TGI in the experiment on HCC-2998 colon, in the experiment with CCRF-CEM leukemia, in the experiment on DU-145 prostate, in the experiment with SF-268 CNS, in the experiment with SF-539 CNS and in the experiment with 786-0 renal was > 100 µM in each case. Besides, the TGI in the experiment on HCT-15 colon and in the experiment on UACC-257 melanoma was > 100 µM each time.
As for `COc1cccc(-c2cc(=O)c3ccccc3o2)c1N`, the TGI with HCC-2998 colon, with CCRF-CEM leukemia, in the experiment with DU-145 prostate, with SF-268 CNS, in the experiment on SF-539 CNS and in the experiment with 786-0 renal was > 100 µM each time. Moreover, the TGI in the experiment on HCT-15 colon and in the experiment with UACC-257 melanoma was > 100 µM in each case.
Consider `COc1ccccc1N/C(=C\C(=O)C(=O)NC12CC3CC(CC(C3)C1)C2)c1ccccc1`, for which the TGI with HCC-2998 colon, in the experiment with CCRF-CEM leukemia, in the experiment with DU-145 prostate, in the experiment with SF-268 CNS, with SF-539 CNS and in the experiment on 786-0 renal was > 10 µM each time. Moreover, the TGI in the experiment with HCT-15 colon and in the experiment on UACC-257 melanoma was > 10 µM throughout.
As for `Nc1ccc2nc(-c3ccccn3)c(-c3ccccn3)nc2c1`, the TGI in the experiment with HCC-2998 colon, in the experiment on CCRF-CEM leukemia, in the experiment with DU-145 prostate, in the experiment with SF-268 CNS, in the experiment on SF-539 CNS and with 786-0 renal was > 100 µM each time. In addition, the TGI with HCT-15 colon and with UACC-257 melanoma was > 100 µM each time.
In the case of `CCOC(=O)CNC(=O)C(CSCc1ccc(Br)cc1)NC(=O)CCC(N)C(=O)OCC` (stereo not given), the TGI in the experiment with HCC-2998 colon, in the experiment with CCRF-CEM leukemia, in the experiment with DU-145 prostate, in the experiment with SF-268 CNS, in the experiment with SF-539 CNS and in the experiment with 786-0 renal was > 50 µM each time. Further, the TGI with HCT-15 colon and in the experiment with UACC-257 melanoma was > 50 µM in each case.
With `NC(C(F)(F)F)(C(F)(F)F)P(=O)(Cc1ccccc1)Cc1ccccc1`, the TGI with HCC-2998 colon, with CCRF-CEM leukemia, in the experiment on DU-145 prostate, in the experiment with SF-268 CNS, in the experiment on SF-539 CNS and with 786-0 renal was > 100 µM throughout. For the same compound, the TGI with HCT-15 colon and in the experiment with UACC-257 melanoma was > 100 µM throughout.
As to `NC(=O)CNC(=O)C1CCCN1C(=O)C1CCCCNOC(=O)CC[C@@H](NC(=O)OCC2c3ccccc3-c3ccccc32)C(=O)NC(Cc2c[nH]c3ccccc23)C(=O)N1` (stereo not given in full) (Fmoc-[dE][ξW][X34][ξP]G-NH2; ester 1-3), the TGI in the experiment with HCC-2998 colon, with CCRF-CEM leukemia, in the experiment with DU-145 prostate, in the experiment on SF-268 CNS, with SF-539 CNS and in the experiment on 786-0 renal was > 100 µM throughout. For the same compound, the TGI in the experiment on HCT-15 colon and in the experiment with UACC-257 melanoma was > 100 µM throughout.
Turning to `CC1(O)CC(C(F)(F)F)(C(F)(F)F)OC1=O` (stereo not given), the TGI with HCC-2998 colon, in the experiment with CCRF-CEM leukemia, with DU-145 prostate, with SF-268 CNS, in the experiment with SF-539 CNS and with 786-0 renal was > 10 µM throughout. Further, the TGI in the experiment on HCT-15 colon and in the experiment with UACC-257 melanoma was > 10 µM throughout.
As for `O=C(O)c1cc2c(cc1CC(Cc1ccc3c(c1)CCC3)C(=O)O)CCC2` (stereo not given), the TGI in the experiment with HCC-2998 colon, in the experiment with CCRF-CEM leukemia, with DU-145 prostate, in the experiment on SF-268 CNS, in the experiment on SF-539 CNS and in the experiment on 786-0 renal was > 100 µM each time. For the same compound, the TGI with HCT-15 colon and in the experiment with UACC-257 melanoma was > 100 µM throughout.
As for `Cc1ccc([C@@H]2[C@@H](C(=O)c3ccccn3)[C@H](c3ccc(C)cc3)C[C@](O)(c3ccccn3)[C@H]2C(=O)c2ccccn2)cc1`, the TGI in the experiment on HCC-2998 colon was > 100 µM; in the experiment on CCRF-CEM leukemia, 4.43 µM; in the experiment on DU-145 prostate, > 100 µM; in the experiment with SF-268 CNS, > 100 µM; with SF-539 CNS, > 100 µM; with 786-0 renal, 9.15 µM. Also, the TGI in the experiment on HCT-15 colon and in the experiment on UACC-257 melanoma was > 100 µM in each case.
`O=C(Nc1ccc(Br)cc1)c1c(-c2ccccc2)c2ccc(O)cc2oc1=O`: the TGI in the experiment on HCC-2998 colon, with CCRF-CEM leukemia, in the experiment with DU-145 prostate, with SF-268 CNS, in the experiment with SF-539 CNS and in the experiment on 786-0 renal was > 10 µM throughout. Moreover, the TGI with HCT-15 colon and with UACC-257 melanoma was > 10 µM each time.
As for `O=C(NNC(=S)Nc1ccc(Cl)cc1)c1cc(-c2ccccc2)nc2ccccc12`, the TGI stood at 11.5 µM with HCC-2998 colon; 6.91 µM with CCRF-CEM leukemia; 16.5 µM with DU-145 prostate; 29.6 µM in the experiment on SF-268 CNS; 11.6 µM in the experiment with SF-539 CNS; 17.6 µM with 786-0 renal. Also, the TGI in the experiment on HCT-15 colon was found to be 14.9 µM; in the experiment on UACC-257 melanoma, 19.5 µM.
Regarding `COCOC1/C=C/CCCC#C[C@H](C)C(=O)CC1` (stereo not given in full), the TGI was determined as 28.9 µM with HCC-2998 colon; 8.46 µM in the experiment with CCRF-CEM leukemia; 28 µM in the experiment on DU-145 prostate; 26.5 µM with SF-268 CNS; 30.4 µM in the experiment on SF-539 CNS; 13.5 µM with 786-0 renal. Also, the TGI came to 24 µM in the experiment on HCT-15 colon and 17.8 µM with UACC-257 melanoma.
Turning to `CSc1nc(Cl)c2c(n1)Sc1nc3cc4c(cc3n1C2O)OCCO4` (stereo not given), the TGI in the experiment with HCC-2998 colon was 12.1 µM; in the experiment with CCRF-CEM leukemia, 3.76 µM; in the experiment on DU-145 prostate, 15.9 µM; with SF-268 CNS, 80.3 µM; in the experiment on SF-539 CNS it was 0.0867 µM; in the experiment on 786-0 renal it was 14.9 µM. The TGI was 11.1 µM with HCT-15 colon and 36.1 µM in the experiment on UACC-257 melanoma.
